Like-named read-outs stand apart in the source and are kept apart here. Blank lines part the entries; values can stand above or below the molecule they belong to.
Columns and labels:
HER2 = test: High-throughput evaluation of HER2 downregulation; type: cell-based; settings: 17-AAG 10 μM with Compound 3 30 nm; SKOV3 cells expressing HER2-HaloTag; five hours; versus DMSO
Method: The pH-sensitive fluorescent probe Compound 3 and 17-AAG (Wako Pure Chemicals) were diluted with water. An equal amount of DMSO (Sigma-Aldrich) was added as a control for the 17-AAG. SKOV3 cells expressing the HER2-HaloTag were suspended in RPMI (Nacalai Tesque) containing 2% FBS (CCB), implanted in a 384-well imaging plate (PerkinElmer), and cultured overnight at 37° C. in a 5% CO2 atmosphere.
Compound 3 and 17-AAG were added to […] of a 384-well imaging plate implanted with SKOV3 cells expressing the HER2-HaloTag to respective final concentrations of 30 nm and 10 μM. DMSO alone was added to 32 wells instead of 17-AAG as a control. Fluorescence values at 580 nm induced by 535 excitation were measured using a plate reader, after which culturing was performed at 37° C. in a 5% CO2 atmosphere for five hours, and fluorescence values were again measured using the plate reader. […] In this way, it is possible to simply evaluate downregulation of the cancer-related receptor HER2 via fluorescence values.

[1] = pH profile of fluorescent intensity (pKa) in phosphate buffer; type: physicochemical; settings: sodium phosphate buffer, from pH profile of fluorescent intensity
Method: (§1) In order to measure absorption and fluorescence spectra, a dye compound was dissolved in dimethyl sulfoxide (DMSO, fluorescent analysis-grade, Dojindo) to obtain 1 mM of standard solution. Using a UV-1650 PCUV/V spectrometer (Shimadzu) and an FP-6600 fluorescence spectrometer (JASCO), the optical properties of the dye compound in 200 mM of a sodium phosphate buffer solution containing 0.03% (v/v) DMSO as a cosolvent were measured. In order to determine fluorescence quantum yield (Φf1), the value (Φf1=0.65) of Rhodamine B in ethanol was used as a standard. The value was calculated according to the following formula. Φx/Φst=[Ast/Ax][nx^2/nst^2][Dx/Dst]
The absorption spectrum and fluorescence emission spectrum when solution pH was altered from 2.0 to 10.0 for Compound A obtained in Example 1 were obtained according to the measurement method described above.
Using a 100 mM phosphate buffer solution of Compound 1 (500 nM) obtained in Example 2, pH was altered from 4.39 to 9.24, and the fluorescence spectrum was measured.
A fitted curve for the pH profile was obtained according to the following formula.
Next, in order to investigate the reversibility of pH changes in Dye Conjugate 1, the fluorescent intensity ratio (fluorescent intensity at 540 nm/fluorescent intensity at 488 nm) was calculated for a case in which pH was cycled between 7.1 and 3.2 every 30 seconds.

[2] = Optical properties and fluorescence quantum yield; type: physicochemical; settings: for Maximum Absorption Wavelength (nm) / Maximum Emission Wavelength (nm): 200 mM sodium phosphate buffer, 0.03% (v/v) DMSO
Method: as §1
The absorption spectrum and fluorescence emission spectrum when solution pH was altered from 2.0 to 10.0 for Compound A obtained in Example 1 were obtained according to the measurement method described above. Absorption spectra are shown in FIG. 1-1, fluorescence emission spectra in FIG. 1-2, and a pH profile showing pH-induced changes in fluorescent intensity in FIG. 1-3. The maximum absorption wavelength, maximum emission wavelength, fluorescent quantum yield, and pKa when pH is changed from 10.0 to 4.0 are shown in table 1.

[3] = in ethanol; cited from earlier work

SMILES: C=CCNC1=C2C[C@@H](C)C[C@H](OC)[C@H](O)[C@@H](C)/C=C(\C)[C@H](OC(N)=O)[C@@H](OC)/C=C\C=C(/C)C(=O)NC(=CC1=O)C2=O [Compound 17-AAG]
Difference in fluorescence values before and after culturing (F5−F0) (HER2): large increase in fluorescence values

pKa ([1]; read-out: pKa (higher, pKa2)): 6.8
pKa ([1]; read-out: pKa (lower, pKa1)): 5.4
Shift of maximum absorption wavelength to shorter wavelength ([2]; deprotonated type (pH 10.0) to protonated type (pH 4.0)): 20 nm
Maximum Absorption Wavelength (nm) ([2]; pH 4.0): 527 nm
Maximum Emission Wavelength (nm) ([2]; pH 4.0): 554 nm
Fluorescence Quantum Yield ([2]; pH 10.0 (deprotonated type), standard Rhodamine B in ethanol): 0.024
Maximum Absorption Wavelength (nm) ([2]; pH 10.0): 547 nm
Maximum Emission Wavelength (nm) ([2]; pH 10.0): 575 nm
SMILES: CN1CCN(c2ccc3c(-c4ccccc4C(=O)O)c4ccc(=[N+]5CCN(C)CC5)cc-4oc3c2)CC1.[Cl-] [Compound A, 1-(9-(2-carboxyphenyl)-6-(4-methylpiperazine-1-yl)-3H-xanthene-3-ylidene)-4-methylpiperazine-1-ium chloride]

pKa ([1]; read-out: pKa (higher, pKa2)): 6.6
pKa ([1]; read-out: pKa (lower, pKa1)): 5.3
SMILES: CN1CCN(c2ccc3c(-c4ccccc4C(=O)N(C)CC(=O)NCCOCCOCCOCCC(=O)[O-])c4ccc(=[N+]5CCN(C)CC5)cc-4oc3c2)CC1 [Compound D, 2-methyl-1-(2-(3-(4-methylpiperazine-1-ium-1-ylidene)-6-(4-methylpiperazine-1-yl)-3H-xanthene-9-yl)phenyl)-1,4-dioxo-8,11,14-trioxa-2,5-diazaheptadecane-17-oate]

SMILES: CCN(CC)c1ccc2c(-c3ccccc3C(=O)O)c3ccc(=[N+](CC)CC)cc-3oc2c1.[Cl-] [Rhodamine B]
Fluorescence Quantum Yield of the standard [3]: 0.65
